These results are taken from patent US20130303439A1, “CHIMERIC PEPTIDES INCLUDING A PENETRATING PEPTIDE AND A BINDING DOMAIN OF PP2A CATALYTIC SUBUNIT TO CASPASE-9” (Institut National de la Sante et de la Recherche Medicale …, priority 2010, published 2013).

One test concerns Daudi. The test is described as follows: Cell death assay (annexin V / PI flow cytometry). Type of test: cell-based, human. The conditions noted are these: peptides at 150 μM. As for the experimental part: (§1) An Annexin-V-FITC conjugated kit (Roche) was used for the assessment of outer leaflet exposure of phosphatidylserine (PS) in the plasma membrane of apoptotic cells. Staining was performed according to the manufacturer's instructions. A total of […] cells were analyzed by flow cytometry in a FACSCalibur cytofluometer (BD Biosciences). Necrotic cells were excluded by propidium iodide (PI) staining, and single annexin V positive cells were considered apoptotic. For apoptotic analysis the different peptides were used at 150 μM.

A further test concerns HeLa. The test is described as follows: Cell death assay (annexin V / PI flow cytometry). Type of test: cell-based, human. The following applies: peptides at 150 μM. The protocol: as §1
Background: Flow cytometry measures light scatter and fluorescence of single cells or particles in a stream.

The subject of another test is Jurkat. The test can be described thus: Cell death assay (annexin V / PI flow cytometry). The test is classed as cell-based, human. The conditions noted are these: peptides at 150 μM. As for the experimental part:
as §1

The subject of the next test is Daudi cells. The test can be described thus: Apoptosis assay (Annexin V-FITC), Example 2. The test is classed as cell-based, human. The conditions noted are these: FIG. 1: 100 microM, 12 and 24 h, method says 150 mM, compared to control non-treated. As for the experimental part:
FIG. 1. Daudi cell line was cultured in RPMI 1640 medium in the presence of DPT-PP2Ah peptide (100 microM). At 12 and 24 h, we analyze the apoptotic effect of the peptide by annexine stainin.
(§2) Annexin V-FITC kit was used for detection of apoptosis and staining was performed according to the manufacturer's instructions. A total of 1×10^5 cells were analyzed by flow cytometry in a FACSCalibur cytometer (BD Biosicences). Necrotic cells were excluded by PI staining and annexin V positive cells were considered apoptotic. The effect of DPT-PP2Ah was compared to untreated control cells or to DPT-C9h-treated cells. Penetrating peptides were used at […]. The shuttle alone (DPT-sh1) was also used as a control.

A further test concerns TS1αβ cells. The test is described as follows: Cell death assay (annexin V / PI flow cytometry). Type of test: cell-based, murine. The conditions noted are these: peptides at 150 μM. The protocol:
as §1
Using flow cytometry detection of annexin V and PI, the inventors analyzed the capacity of DPT-C9 to induce apoptosis in TS1αβ cells cultured in presence of IL-2. In contrast to non penetrating C9 peptide, DPT-C9 induced a 6-fold increase of apoptosis.

For another test, the system named is CTLL. The test is described as follows: Cell death assay (annexin V / PI flow cytometry). The test is classed as cell-based. The following applies: murine CTLL; peptides at 150 μM. As for the experimental part:
as §1

Test [1] relates to primary cells isolated from xenograft model of lung cancer (LCF25). The test can be described thus: Apoptosis by annexin staining in primary cells from xenograft model. The following applies: 100 microM, 16 h, compared to control non-treated cells. The test is classed as cell-based. The protocol:
(§3) FIG. 2 Cell isolated form xenograft models of lung cancer (LCF25), breast cancer (BC52) and uveal melanoma (KMP41) were cultured in DMEM medium in the absence (control) or in the presence of 100 microM of DPT-PP2Ah peptide. After 16 h of culture, apoptosis was estimated by annexin staining.
as §2

Test [2] deals with primary cells isolated from xenograft model of uveal melanoma (KMP41). Described as above. Type of test: cell-based. The following applies: 100 microM, 16 h, compared to control non-treated cells. The protocol: as §3, §2
Test [3] deals with primary cells isolated from xenograft model of breast cancer (BC52). The test is described as above. The test is classed as cell-based. The following applies: 100 microM, 16 h, compared to control non-treated cells. The protocol:
as §3, §2

Test [4] deals with triple negative breast cancer model BC11. The test is described as follows: In vivo tumor growth inhibition of primary human breast cancer xenografts. Details: species or system mice. The following applies: once daily for 5 weeks. The text has this: The primary human xenografts were obtained as previously described (Marangoni et al., (2007) Clin Cancer Res 13:3989-3998, de Plater et al., (2010) Br J Cancer 103:1192-1200. Spontaneously growing mammary tumors […] were xenografted into nude immunodeficient mice to allow pharmacological assessments, and maintained from nude mouse to nude mouse serially passages.
For therapeutic experimental assays, 5- to 8-week old Swiss nu/nu female mice received a subcutaneous graft of tumor fragments with a volume of approximately 15 mm^3. Tumors developed at the graft site 2 to 6 weeks later. Mice bearing growing tumors with a volume of 40 to 200 mm^3 were individually identified and randomly assigned to the control or treatment groups (9-10 animals in each group) and treatments were started on day 1. Mice were weighed twice a week. Tumour-bearing mice were sacrificed when the tumor volume reached 2500 mm^3, defined as the ethical limit. Tumor volumes and antitumor activity were evaluated as previously reported (Marangoni et al., (2007) Clin Cancer Res 13:3989-3998).
DPT-PP2Ah peptide diluted in water/glucose (1 to 25 mg/kg) was given by intraperitoneally route 7 days per week.
To evaluate the potential antitumor effect of DPT-PP2Ah, we treated mice bearing the triple negative breast cancer model BC11. […]

As for “VKKKKIKREIKI-YVETLDGIFEQWAHSEDL (VKKKKIKREIKIYVETLDGIFEQWAHSEDL; Synthetic human DPT-C9) [DPT-C9h]”, the increase of apoptosis in the test on Daudi, with HeLa and in the test on Jurkat was 5 fold each time. Also, the “apoptosis (annexin staining)” value in the test with Daudi cells was “lower apoptosis”. In addition, the “induction of apoptosis / cell death (in words)” value in the test with TS1αβ cells is given as “unable to cause cell death”. The “cell death (in words)” value in the test on CTLL is “unable to cause cell death”.

Consider “VKKKKIKREIKIDTLDHIRALDRLQEVPHEGP (Synthetic DPT-PP2Ah)”, for which the “apoptosis (annexin staining)” value in [1] was “induces apoptosis”; in test [2], “induces apoptosis”; in [3] it was “induces apoptosis”; with Daudi cells, “strongly induces apoptosis”. In addition, the “tumor growth inhibition (TGI)” value in [4] (1 mg/kg intraperitoneally, relative to 5 mg/kg) is “lower”; in test [4] (5 mg/kg intraperitoneally, end of treatment), “significant tumor growth inhibition”.
